This is an account of results in patent US20180296447A1, “BIOCIDAL COMPOSITIONS AND RELATED METHODS” (Imerys Filtration Minerals, Inc., priority 2015, published 2018).

The test system of this test is Streptococcus mutans UA159 (ATCC 700610). The test can be described thus: Direct bacterial killing experiment, spiral plating viability. The test is classed as cell-based. On the procedure: A direct bacterial killing experiment was done using spiral plating to measure the viability of the Streptococcus mutans UA159 (ATCC 700610) (S. mutans). Streptococcus mutans is facultatively anaerobic, gram-positive coccus-shaped bacterium commonly found in the human oral cavity and is a significant contributor to tooth decay.
All of Examples 4-6 were measured blindly without any knowledge of their composition. This was accomplished by pipetting 1 ml of the diluted sample powder particles (100 mg/ml) into 3 ml of Tryptic Soy broth containing 1% sucrose (TSBS) and 20 ul of an overnight culture of S. mutans. The inoculated suspensions were incubated for 24 hours at 37° C. in 5% CO2, diluted 1:10 and 1:1000, and spiral plated onto blood agar plates. The colonies on the plates were counted in a Colony Forming Unit (CFU) after 24 hours of incubation. Regarding controls, 0.12% chlorhexidine (CHX) was used a positive control, and sterile water was used as a negative control.

Regarding `[H]/N=C(\N/C(=N/[H])NCCCCCCNC(=N)NC(=N)Nc1ccc(Cl)cc1)Nc1ccc(Cl)cc1` [CHX control, chlorhexidine], the “Inhibition of S. mutans in the viability assay (in words)” value (24 hours incubation) is reported as “significantly inhibited”. Also, for the setting “S. mutans, 1 ml of 100 mg/ml sample powder in 3 ml TSBS, 24 hours at 37° C., 5% CO2, CHX 0.12%”, the “Mean (CFU/ml)” value is on record as 1.67 × 10^2 ± 0.047 CFU/ml.
